Counter-ions that a name gives are not always drawn.
Key:
rat = assay: standard rat tail flick assay; type: in vivo; settings: suspension in 20% PEG
Protocol: The assay was the standard rat tail flick assay. Test agents were administered intravenously as suspensions in 20% PEG.

kappa receptors = assay: binding to kappa receptors relative to mu opiate receptor; settings: kappa versus mu opiate receptor
delta receptors = assay: binding to delta receptors relative to mu opiate receptor; settings: delta versus mu opiate receptor

NC(Cc1ccc(O)cc1)C(=O)NC1CCCCNC(=O)C(Cc2ccccc2)NC(=O)C(Cc2c[nH]c3ccccc23)NC1=O [CYT-1010 Acetate, H-Tyr-c-[D-Lys-Trp-Phe]]
Activity % MPE Ave (rat; IV dose 2 mg/kg, listed as Acetate, 2 mg/kg): 50.0% | Activity % MPE Ave (rat; IV dose 4 mg/kg, listed as Acetate, 4 mg/kg): 83.3%

H-Tyr-Pro-Trp-Phe-NH2 [SEQ ID NO:1]
weaker binding to kappa receptors (selectivity for mu opiate receptor) (kappa receptors): over 15,000 fold | weaker binding to delta receptors (selectivity for mu opiate receptor) (delta receptors): over 4000 fold

NC(Cc1ccc(O)cc1)C(=O)NC1CCCCNC(=O)C(Cc2ccccc2)NC(=O)C(Cc2c[nH]c3ccccc23)NC1=O [CYT-1010 TFA, H-Tyr-c-[D-Lys-Trp-Phe]]
Activity % MPE Ave (rat; IV dose 4 mg/kg, listed as TFA, 4 mg/kg): 25.4% | Activity % MPE Ave (rat; IV dose 8 mg/kg): 71.2%

NC(Cc1ccc(O)cc1)C(=O)NC1CCCCNC(=O)C(Cc2ccccc2)NC(=O)C(Cc2c[nH]c3ccccc23)NC1=O [CYT-1010 Lactate, H-Tyr-c-[D-Lys-Trp-Phe]]
Activity % MPE Ave (rat; IV dose 2 mg/kg, listed as Lactate, 2 mg/kg): 1.4%

NC(Cc1ccc(O)cc1)C(=O)NC1CCCCNC(=O)C(Cc2ccccc2)NC(=O)C(Cc2c[nH]c3ccccc23)NC1=O [CYT-1010 Aspartate, H-Tyr-c-[D-Lys-Trp-Phe]]
Activity % MPE Ave (rat; IV dose 2 mg/kg, listed as Aspartate, 2 mg/kg): 7.4%

NC(Cc1ccc(O)cc1)C(=O)NC1CCCCNC(=O)C(Cc2ccccc2)NC(=O)C(Cc2c[nH]c3ccccc23)NC1=O [CYT-1010 Free Base, H-Tyr-c-[D-Lys-Trp-Phe]]
Activity % MPE Ave (rat; IV dose 2 mg/kg, listed as Free Base, 2 mg/kg): 77.7% | Activity % MPE Ave (rat; IV dose 4 mg/kg, listed as Free Base, 4 mg/kg): 100.0%

NC(Cc1ccc(O)cc1)C(=O)NC1CCCCNC(=O)C(Cc2ccccc2)NC(=O)C(Cc2c[nH]c3ccccc23)NC1=O [CYT-1010 HCL, H-Tyr-c-[D-Lys-Trp-Phe]]
Activity % MPE Ave (rat; IV dose 4 mg/kg, listed as HCL, 4 mg/kg): 0.0%
